This is an account of results in patent US7745465B2, “Method of enhancing cellular production of molecular chaperone, hydroxylamine derivatives useful for enhancing the chaperone production and the preparation thereof” (CytRx Corporation, priority 1995, dated 2010).

One data set relates to GRP-94. Briefly: Level of GRP-94 in STZ diabetic rat liver (Western blot). In kind it is in vivo. For orientation: A western blot detects proteins with antibodies after separation by electrophoresis.
A further data set relates to Male Sprague-Dawley rats. Briefly: Protection against cardiac ischaemia: survival after 5 minutes coronary occlusion and reperfusion. In kind it is in vivo, rat. The conditions noted are these: i.v. 1 mg/kgbw, 5 min. before the occlusion; non-treated control 10. How it is done: Male Sprague-Dawley rats (380-450 g b.w.) were anaesthetized with sodiumpentobarbital (Nembutal 60 mg/kg body weight, i.p.) and artificially ventilated with room air (2 ml/100 g; 54 stroke/minutes) via tracheotomy. The right carotid artery was catheterized and connected to a pressure transducer (BPR-01, Stoelting) for the measurement of systemic arterial blood pressure (BP) by means of a preamplifier (Hg-02, Experimetria). Hydroxylamine derivatives disclosed in Example 5 were administered via the venous cannule to jugular vein (i.v.) and orally (p.o.). Heart rate (HR) was measured by a cardiotachometer (HR-01, Experimetria). The electrocardiogram (ECG standard lead II) was recorded on a devices recorder (MR-12, Medicor) by means of subcutaneous steel needles electrodes. The chest was opened by a left thoracotomy and the heart was exteriorized by a gentle pressure on the right side of the rib cage. A 4-0 silk suture was quickly placed under the main left coronary artery as described by Selye et al. (1960). The heart was carefully replaced in the chest and the animal left to recover. Rectal temperature was monitored and kept constant at 37 C. The experimental protocol was initiated with a 15 minute stabilization period during which the observation of a sustained blood pressure less than 70 mmHg and or the occurrence of anhythmia led to exclusion. Myocardial ischemia was induced with coronary occlusion for 5 minutes and reperfusion allowed for 10 minutes.
During the entire experiment BP, HR and ECG were continuously registered on a multiscriptor (R61-6CH, Medicor). Hydroxylamine derivatives, the tautomeric forms of which are represented by structures (I) and (II), were administered 5 to 60 minutes before the occlusion after i.v. and p.o. treatment, respectively. […]
The mean duration of ventricular tachycardia (VT) and/or ventricular fibrillation (VF) during the first 3 minutes of reperfusion was analyzed by one-way analysis of variance. The incidence of VF was analyzed using a chi-square test. […] The haemodynamic variables were analyzed using Student's “t”-test. The critical level of significance was set at p<0.05. All results were expressed as a means±S.E.M. Drugs were administered i.v. in a dose of 1 mg/kgbw 5 min. before the occlusion.
The hydroxylamine derivatives that are found to be particularly advantageous for protecting an animal against ischemic/reperfusion injury are listed below. Survival (%) indicates the percent of animals survived the effects of 5 minutes coronary occlusion.

Data set [1] has as its system HSP72. Briefly: Heat stress induced HSP72 production in 3T3 cells. The conditions noted are these: 10^−5 M. The class given is cell-based, mouse. How it is done:
From the applied cells the 3T3 and L-929 mouse fibroblasts were cultured in MEM medium and grew in monolayer, the U-937 human leukemia cells were maintained in RPMI-1640 medium, in suspension culture, while the HeLa human epithelial cells were cultured in DMEM medium and in monolayer form. Cell cultures were maintained as described in example 6.2 (a) with the difference that cells were cultured in the above mentioned culture mediums.
Experiments were carried out applying stress before and after the drug treatment. Stress was provoked by heat, by chemical agent, HgCl2 treatment. The test compounds were applied in the treatments at the 10^−5 M concentration.
The experiments on 3T3 cell applying heat stress were performed as described in the 6.2. (c) point of example 6, with the difference that stress was induced by a 30 min. exposure at 43° C. temperature and treatment with the test compounds was performed 15 min. before or 100 min. after the heat stress.
Immunodetection was carried out using the HSP72 specific SPA 810 (StressGene) primary and the horse-radish peroxidase conjugated A9044 (Sigma) secondary antibodies. Densitometric evaluation was performed by a LKB Ultrascan XL densitometer.

Data set [2] relates to Hsp72. Briefly: Heat stress induced hsp72 expression in rat testicular explant. The conditions noted are these: 10^−5 M, 15 min. before 43° C. 30 min. The class given is cell-based. How it is done:
Testis of CFY rats weighing of 200 g were removed in sterile conditions and the released testicular tubuli were suspended in 10% fetal bovine serum containing MEM culture medium in that way that five ml suspension contained 50-100 mg tissue. The explants were incubated in 5% CO2 containing humidified air at 37° C. for one hour, then the cultures were treated with 10^−5 M concentration of the tested compounds. After a further incubation for 15 min. at 37° C., explants were exposed to heat shock at 43° C. for 30 min. The amount of the induced hsp72 was measured after a further 6 hours incubation at 37° C.

The mark [3] stands for this setting: treatment 15 min. before 30 min. 43° C. heat stress.
Setting [4] is: treatment 100 min. after 30 min. 43° C. heat stress.

Turning to “insulin: Insulin (Protophane HM inj.) [reference compound]”, the “levels of GRP-94 compared to the control state” value with GRP-94 (insulin alone, 1 week and 2-weeks samples) is “almost doubled”. Further, the “relative amount of GRP-94” value in the data set on GRP-94 (rats diabetic for 4 weeks, insulinized, not treated with the compound) is listed as “recovery of GRP-94 to the control level”.
The melting point is the temperature, or range, at which the solid turns liquid. In turn, `Cl.N=C(NOCCCN1CCCCC1)c1cccc(C(F)(F)F)c1` came in with a melting point of 116 to 119 °C.
With `CCCCCCCCCCCCCCCC(=O)OC(CONC(=N)c1cccnc1)CN1CCCCC1.Cl` (centres unmarked) [Example 22, N-[2-palmitoyloxy-3-(1-piperidinyl)propoxy]-3-pyridinecarboximidamide monohydrochloride], the “Survival (%)” value in the data set with Male Sprague-Dawley rats is 100%. Moreover, the “HSP72 level relative to the stress exposed control” value is given as “+++ (>100%)” in the data set on HSP72 [1] (setting [3]) and “+ (21-50%)” with HSP72 [1] (setting [4]). In addition, the “Level of hsp72 relative to the stress exposed control” value in the data set on Hsp72 [2] is given as 0 (0 indicates that the treatment altered by ±20% the stress induced hsp72 level in the cells).
As to `Cl.Cl.ClC(=NOCCCN1CCCCC1)c1cccnc1` [Example 78, N-(3-piperidino-1-propoxy)-3-pyridinecarboximidoyl chloride dihydrochloride], the “Survival (%)” value in the data set on Male Sprague-Dawley rats was found to be 100%. Also, the “HSP72 level relative to the stress exposed control” value with HSP72 [1] (setting [3]) is reported as “+++ (>100%)”. Moreover, the “Level of hsp72 relative to the stress exposed control” value in the data set on Hsp72 [2] is on record as “+ +”.
Turning to `CC(=O)Nc1ccc(C(N)=NOCC(O)CN2CCCCC2)cc1.Cl` (centres unmarked) [Example 39], the “Survival (%)” value in the data set on Male Sprague-Dawley rats is on record as 60%. The “Level of hsp72 relative to the stress exposed control” value with Hsp72 [2] is reported as 0 (0 indicates that the treatment altered by ±20% the stress induced hsp72 level in the cells).
As to `Cl.N=C(NOCC(CN1CCCCC1)OC(=O)c1ccccc1Cl)c1cccnc1` (centres unmarked), the melting point was 91 to 94 °C.
Same read-out and setting: with `CN1CCN(CCCONC(=N)c2cccnc2)CC1.Cl` the figure was 127 to 130 °C; with `Cl.OC(CNC1CCCCC1)CON=C(Cl)c1cccc(C(F)(F)F)c1` (centres unmarked), 147 to 149.5 °C.
For the molecule `Cl.O=[N+]([O-])c1cccc(C(Cl)=NOCC(O)CN2CCCCC2)c1` (centres unmarked) [Example 4, N-[2-hydroxy-3-(1-piperidinyl)propoxy]-3-nitro-benzenecarboximidoyl chloride monohydrochloride], the “Survival (%)” value in the data set with Male Sprague-Dawley rats is 50%. In addition, in the data set on Hsp72 [2], the “Level of hsp72 relative to the stress exposed control” value is recorded as “+ (21-50%)”.
The molecule `Cl.O=[N+]([O-])c1ccc(C(Cl)=NOCC(O)CN2CCCCC2)cc1` (centres unmarked) returned a melting point of 180 to 182 °C.
With `CN(OCCCN1CCCCC1)C(=O)c1ccccc1.Cl` [N-methyl-N-[3-(1-piperidinyl)-propoxy]-benzamide hydrochloride], in the data set on HSP72 [1] (setting [3]), the “HSP72 level relative to the stress exposed control” value is “+ (21-50%)”. Also, the “Level of hsp72 relative to the stress exposed control” value with Hsp72 [2] was “+ (21-50%)”.
As for `N=C(NOCC(CN1CCCCC1)OC(=O)c1ccco1)c1cccnc1.O=C(O)/C=C\C(=O)O` (centres unmarked), the melting point was in the range of 167 to 171.5 °C.
The same measure, in the same setting: to `Cl.OC(CONC(=NC1CCCCC1)c1cccnc1)CN1CCCCC1` (centres unmarked) belongs 130 to 134 °C; to `Cl.Cl.N=C(NOCC(O)CN1CCCCC1)c1ccccc1[N+](=O)[O-]` (centres unmarked), 200 to 208 °C.
As to `CCCCCCNC(=O)NOCC(O)CN1CCCCC1` (centres unmarked) [Example 58, N-hexyl-N′-[2-hydroxy-3-(1-piperidinyl)propoxy]-urea], in the data set on HSP72 [1] (setting [4]), the “HSP72 level relative to the stress exposed control” value was “+++ (>100%)”. Also, in the data set on Hsp72 [2], the “Level of hsp72 relative to the stress exposed control” value is recorded as 0 (0 indicates that the treatment altered by ±20% the stress induced hsp72 level in the cells).
As for `CCN(CC)CC1CON=C(c2cccnc2)O1.Cl` (centres unmarked) [3-(3-piridyl)-5-diethylaminomethyl-5,6-dihydro-6H-1,4,2-dioxazine hydrochloride], the “HSP72 level relative to the stress exposed control” value in the data set with HSP72 [1] (setting [3]) was “+ (21-50%)”. For the same molecule, the “Level of hsp72 relative to the stress exposed control” value with Hsp72 [2] is on record as “+ +”.
On to `Cl.Cl.N=C(NOCCCN1CCCCC1)c1ccccc1`, for which the melting point is 207 to 209 °C.
Turning to `Cl.Cl.N=C(NOCC(O)CN1CCCCC1)c1ccc([N+](=O)[O-])cc1` (centres unmarked), the melting point was 184 to 189 °C.
Take `CC(C)(C)NC1CON=C(c2cccnc2)O1` (centres unmarked) [3-(3-piridyl)-5-t-butylamino-5,6-dihydro-6H-1,4,2-dioxazine]: the “HSP72 level relative to the stress exposed control” value in the data set on HSP72 [1] (setting [3]) is “+ (21-50%)”. For the same molecule, the “Level of hsp72 relative to the stress exposed control” value with Hsp72 [2] is on record as 0 (0 indicates that the treatment altered by ±20% the stress induced hsp72 level in the cells).
Turning to `CC(C)(C)NCC(O)CON=C(Cl)c1cccc(C(F)(F)F)c1.Cl` (centres unmarked) [Example 9, N-[3-[(1,1-Dimethylethyl)amino]-2-hydroxypropoxy]-3-trifluoromethylbenzene-carboximidoyl chloride monohydrochloride], the “Survival (%)” value in the data set with Male Sprague-Dawley rats is 100%. Also, in the data set with Hsp72 [2], the “Level of hsp72 relative to the stress exposed control” value is recorded as “+ (21-50%)”.
As for `O=C(O)/C=C\C(=O)O.O=C(OC(CON=C(Cl)c1cccnc1)CN1CCCCC1)c1ccccc1` (centres unmarked) [Example 21, N-[2-benzoyloxy-3-(1-piperidinyl)propoxy]-3-pyridinecarboximidoyl chloride (Z)-2-butenedioate (1:1)], the melting point is 134 to 136 °C. In addition, the “Level of hsp72 relative to the stress exposed control” value in the data set with Hsp72 [2] is “+ +”.
Take `Cl.O=[N+]([O-])c1ccccc1C(Cl)=NOCC(O)CN1CCCCC1` (centres unmarked) [Example 6, N-[2-hydroxy-3-(1-piperidinyl)propoxy]-2-nitro-benzenecarboximidoyl chloride monohydrochloride]: the “Survival (%)” value in the data set with Male Sprague-Dawley rats is 100%. Besides, the figures for the “HSP72 level relative to the stress exposed control” value in the data set with HSP72 [1] (setting [3]) and in the data set on HSP72 [1] (setting [4]) were “+++ (>100%)” and 0 (0 indicates that the treatment altered by ±20% the stress induced hsp72 level in the cells), respectively. Further, in the data set with Hsp72 [2], the “Level of hsp72 relative to the stress exposed control” value is reported as “+ +”.
In the case of `CCCCCCCCCCCCCCCC(=O)OC(CON=C(Cl)c1cccnc1)CN1CCCCC1.Cl.Cl` (centres unmarked) [Example 23, N-[2-palmitoyloxy-3-(1-piperidinyl)propoxy]-3-pyridinecarboximidoyl chloride dihydrochloride], the melting point lay within 69 to 73.5 °C. Moreover, the “Level of hsp72 relative to the stress exposed control” value in the data set on Hsp72 [2] is “+ + +”.
For the molecule `Cl.OC(CON=C(Cl)c1nccc2ccccc12)CN1CCCCC1` (centres unmarked), the melting point was in the range of 168 to 172 °C.
The same measure, in the same setting: to `Cl.N=C(NOCCCN1CCCCC1)c1cccc([N+](=O)[O-])c1` belongs 158 to 162 °C; to `COc1ccc(CC(=N)NOCCCN2CCCCC2)cc1OC.Cl.Cl`, 207 to 209 °C.
`CCN(CC)CC(O)CON=C(Cl)c1cccc(C(F)(F)F)c1.Cl` (centres unmarked) [Example 12, N-[3-(diethylamino)-2-hydroxypropoxy]-3-trifluoromethyl-benzenecarboximidoyl chloride monohydrochloride]: the melting point lay in the range of 121 to 128 °C. Further, the “Level of hsp72 relative to the stress exposed control” value in the data set on Hsp72 [2] is recorded as “+ (21-50%)”.
Consider `Cl.Cl.N=C(NOCC(O)CN1CCCCC1)c1cccs1` (centres unmarked), for which the melting point was in the range of 157 to 170 °C.
